Laboratory results as given in US9535057B2, “Method of in vivo screening for cardiac toxic agents using teleost” (CITY UNIVERSITY OF HONG KONG, priority 2007, dated 2017).

System: zebrafish embryos
Assay: Cardiotoxicity screen in zebrafish embryos: heart rate and heart beat rhythm from video of blood circulation with power spectral analysis, and by direct examination of heart
Type: in vivo
Settings: 48-hpf zebrafish embryos, 2 μM haloperidol in egg medium, 4 hour incubation; direct examination of heart and power spectral analysis (FIG. 7); p<0.05 vs control
Excerpt: Before videoing blood cell circulation, the teleost is immobilized on a surface, for example, glass slide or plastic petri dish. Immobilization medium can be agarose, agar or methyl-cellulose. The optimal concentration of agarose or agar used is 0.5% (w/v) or lower. The concentration of methyl-cellulose used is 2-4% (w/v). Teleosts should be oriented in their spontaneous lateral position.
A video imaging system consists of a microscope, either stereomicroscope or conventional light microscope, with low magnification objective (FIG. 1). […] Video recorded in medium, e.g. VCR tape or mini DV tape, or recorded in personal computer is converted back to readable format, such as AVI or WMV format, and stored in personal computer for further video image analysis. […]
Data analysis of the series of the amount of differential pixels obtained from video image analysis is performed by methods implemented in the home-made software. Data series of amount of differential pixels is analyzed by comprising power spectral analysis in which data series of differential pixels is decomposed by discrete Fourier transform. […] A total power value of the spectrum is calculated. […]
The embodiment is tested in wild type embryos at 52 hpf. […] Heart rate is determined from direct visual counting of the number of heart beats in 1 min. […] In addition, the cardiac rhythm is determined as the standard deviation of heart beat time interval. […]

O=C(CCCN1CCC(O)(c2ccc(Cl)cc2)CC1)c1ccc(F)cc1 [haloperidol]
heart rate: significantly decreased
